*1 amine or outer side, *2 acyl side, *3 side chain or, on linkers, in order; H or OH if unused. Where a SMILES comes first, the peptide text is derived from it. Where no end group is shown, it is not given here. [ ]: non-standard residue; d: D form. The star is where a group is joined. Leuψ(CH2NH)ValIleHisOH = CC[C@H](C)[C@H](NC(=O)[C@@H](NC[C@H](CC(C)C)N*)C(C)C)C(=O)N[C@@H](Cc1c[nH]cn1)C(=O)O; X3 = CC[C@H](C)[C@H](NC(=O)[C@@H](NC[C@H](CC(C)C)N*)C(C)C)C(=O)N[C@@H](Cc1ccc(O)cc1)C(=O)O; X1 = CC(C)C[C@H](N[*:1])[C@@H](O)C[C@H](C(=O)[*:2])C(C)C; X4 = CC(C)C[C@H](N[*:1])[C@@H](O)CCC(=O)[*:2]; Boc = CC(C)(C)OC(=O)*

In the first assay the target is T1, human renin (Homo sapiens, UniProt P00797).
T1 construct: angiotensin-I released from human renin substrate by human resin in human plasma; from tissue; host or cells: human plasma (containing EDTA)
T1 sequence (P00797 67-406): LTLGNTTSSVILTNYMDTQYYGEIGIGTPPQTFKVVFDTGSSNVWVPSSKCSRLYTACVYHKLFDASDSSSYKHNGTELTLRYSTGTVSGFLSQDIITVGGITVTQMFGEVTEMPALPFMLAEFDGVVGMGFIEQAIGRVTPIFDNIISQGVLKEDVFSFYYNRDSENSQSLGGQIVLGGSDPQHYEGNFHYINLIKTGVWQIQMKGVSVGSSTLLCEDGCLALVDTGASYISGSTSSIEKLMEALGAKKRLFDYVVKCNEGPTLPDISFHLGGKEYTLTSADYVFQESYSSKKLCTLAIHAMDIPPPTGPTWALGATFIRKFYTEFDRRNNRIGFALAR
Description: human renin-renin substrate reaction in vitro; radioimmunoassay of angiotensin-I released in human plasma. Format: biochemical. The settings on record: Table 2; read-out: IC50 μM v/s human renin. The text has this: Preliminary activity test results in the human […] substrate reaction in vitro are given, with comparative figures for the tetrapeptide analogue (III). […] The test results given herein are based on the methods described by J. A. Miller et al in Clinica Chimica Acta (1980) 101 5-15 and K. Poulsen and J. Jorgensen in J. Clin. Endocrinol. Metab. (1974) 39 816, and is based on the measurement, by radioimmunoassay, of angiotensin-I released from human renin substrate by human resin in human plasma. The inhibitor is dissolved in 0.01N HCl (10 μl) and added to hmman plasma (75 μl) containing EDTA, and angiotensin-I antibody (15 μl) in 3M-Tris/HCl buffer (pH 6.9). After incubation at 37° C. for 0-120 minutes, the enzymic reaction is quenched by the addition of ice-cold 0.25M Tris/HCl buffer (pH 7.4) containing 0.01% of bovine serum albumin. 125I-labelled angiotensin-I is added, followed by equilibration at 4° C. for 48 hours. Free and bound ligand are separated by the addition of dextrancoated charcoal, and the amount of bound radio-ligand determined in a gamma counter.
Regarding `CC[C@H](C)[C@H](NC(=O)[C@@H](C[C@H](O)[C@H](CC(C)C)NC(=O)[C@H](Cc1c[nH]cn1)NC(=O)[C@H](Cc1ccccc1)NC(=O)OC(C)(C)C)C(C)C)C(=O)N[C@@H](Cc1c[nH]cn1)C(=O)O` [Example XLVI] (Boc-FH[X1]IH-OH), the IC50 is 0.007 µM.

In the case of `CC[C@H](C)[C@H](NC(=O)[C@@H](C[C@H](O)[C@@H](N)CC(C)C)C(C)C)C(=O)N[C@@H](Cc1c[nH]cn1)C(=O)N[C@@H](CCCCN)C(=O)O` [Example XLI], the IC50 was determined as 11 µM.

Consider `CC[C@H](C)[C@H](NC(=O)[C@@H](C[C@H](O)[C@H](CC(C)C)NC(=O)[C@H](Cc1c[nH]cn1)NC(=O)[C@@H](N)Cc1ccccc1)C(C)C)C(=O)N[C@@H](Cc1c[nH]cn1)C(=O)O` [Example XLVII] (H-FH[X1]IH-OH), for which the IC50 amounted to 5 µM.

Take `CC[C@H](C)[C@H](NC(=O)CC[C@H](O)[C@H](CC(C)C)NC(=O)[C@H](Cc1c[nH]cn1)NC(=O)[C@H](Cc1ccccc1)NC(=O)OC(C)(C)C)C(=O)N[C@@H](Cc1c[nH]cn1)C(=O)O` [Example XLVIII] (Boc-FH[X4]IH-OH): the IC50 is 0.3 µM.

With `CC[C@H](C)[C@H](NC(=O)[C@@H](C[C@H](O)[C@H](CC(C)C)NC(=O)[C@H](Cc1c[nH]cn1)NC(=O)[C@H](Cc1ccccc1)NC(=O)OC(C)(C)C)C(C)C)C(=O)N[C@@H](Cc1c[nH]cn1)C(=O)OC` [Example LI] (Boc-FH[X1]IH-OMe), the IC50 came out at 0.0035 µM.

Turning to `CC[C@H](C)[C@H](NC(=O)[C@@H](C[C@H](O)[C@@H](N)CC(C)C)C(C)C)C(=O)N[C@@H](Cc1c[nH]cn1)C(=O)O` [XLIII], the IC50 turned out to be 29 µM.

As for `CC[C@H](C)[C@H](NC(=O)[C@@H](C[C@H](O)[C@H](CC(C)C)NC(=O)[C@H](Cc1c[nH]cn1)NC(=O)[C@H](Cc1ccccc1)NC(=O)OC(C)(C)C)C(C)C)C(=O)N[C@@H](Cc1ccccc1)C(=O)OC` [XLIX] (Boc-FH[X1]IF-OMe), the IC50 came out at 0.018 µM.

Still in this assay, the particulars now being: Table 5; human renin-renin substrate reaction in vitro; read-out: IC50.
With `CC(C)C[C@@H](CN[C@@H](CC(C)C)C(=O)N[C@H](C(=O)N[C@@H](Cc1ccc(O)cc1)C(=O)O)C(C)C)NC(=O)[C@H](Cc1c[nH]cn1)NC(=O)[C@H](Cc1ccccc1)NC(=O)[C@@H]1CCCN1C(=O)[C@H](N)Cc1c[nH]cn1` [Example IV, H-DHis-Pro-Phe-His-Leu-reduced-Leu-Val-Tyr-OH], the IC50 was 1 µM.

Turning to `CC[C@H](C)[C@H](NC(=O)[C@@H](NC[C@H](CC(C)C)NC(=O)[C@H](Cc1c[nH]cn1)NC(=O)[C@H](Cc1ccccc1)NC(=O)[C@@H]1CCCN1C(=O)[C@@H](N)Cc1c[nH]cn1)C(C)C)C(=O)N[C@@H](Cc1c[nH]cn1)C(=O)O` [Example V, H-His-Pro-Phe-His-Leu-reduced-Val-Ile-His-OH] (H-HPFH-{Leuψ(CH2NH)ValIleHisOH}), the IC50 stood at 0.26 µM.

With “HPFHLVIH [corresponding nonisosteric peptide, reference compound]”, the IC50 was determined as 400 µM.

For `CC(C)[C@H](NC(=O)[C@H](Cc1ccccc1)NC[C@H](Cc1ccccc1)NC(=O)[C@H](Cc1c[nH]cn1)NC(=O)[C@H](Cc1ccccc1)NC(=O)[C@@H]1CCCN1C(=O)[C@H](Cc1c[nH]cn1)NC(=O)[C@@H]1CCCN1)C(=O)N[C@@H](Cc1ccc(O)cc1)C(=O)N[C@@H](CCCCN)C(=O)O` [Example XI], the IC50 is 0.05 µM.

Take `CC(C)C[C@@H](CN[C@H](C(=O)N[C@H](C(=O)N[C@@H](Cc1ccc(O)cc1)C(=O)O)C(C)C)C(C)C)NC(=O)[C@H](Cc1c[nH]cn1)NC(=O)[C@H](Cc1ccccc1)NC(=O)[C@@H]1CCCN1C(=O)[C@@H](N)Cc1c[nH]cn1` [Example XII]: the IC50 is 1.5 µM.

For `CC(C)C[C@@H](CN[C@@H](CC(C)C)C(=O)N[C@H](C(=O)N[C@@H](Cc1ccc(O)cc1)C(=O)O)C(C)C)NC(=O)[C@H](Cc1c[nH]cn1)NC(=O)[C@H](Cc1ccccc1)NC(=O)[C@@H]1CCCN1C(=O)[C@@H](N)Cc1c[nH]cn1` [Example I, H-His-Pro-Phe-His-Leu-reduced-Leu-Val-Tyr-OH], the IC50 is 1 µM.

As to `CC(C)C[C@@H](CN([C@@H](CC(C)C)C(=O)N[C@H](C(=O)N[C@@H](Cc1ccc(O)cc1)C(=O)O)C(C)C)S(=O)(=O)c1ccccc1)NC(=O)[C@H](Cc1c[nH]cn1)NC(=O)[C@H](Cc1ccccc1)NC(=O)[C@@H]1CCCN1C(=O)[C@@H](N)Cc1c[nH]cn1` [Example III, H-His-Pro-Phe-His-Leu-reduced (SO2 Ph)-Leu-Val-Tyr-OH], the IC50 is 1.5 µM.

On to `CC(C)[C@H](NC(=O)[C@H](Cc1ccccc1)NC[C@H](Cc1ccccc1)NC(=O)[C@H](Cc1c[nH]cn1)NC(=O)[C@H](Cc1ccccc1)NC(=O)[C@@H]1CCCN1C(=O)[C@@H](N)Cc1c[nH]cn1)C(=O)N[C@@H](Cc1ccc(O)cc1)C(=O)O` [Example VIII], for which the IC50 was determined as 1.3 µM.

As to `CC(C)C[C@@H](CN[C@@H](CC(C)C)C(=O)N[C@H](C(=O)N[C@@H](Cc1ccc(O)cc1)C(=O)O)C(C)C)NC(=O)[C@H](Cc1c[nH]cn1)NC(=O)[C@H](Cc1ccccc1)NC(=O)[C@@H]1CCCN1` [Example II, H-Pro-Phe-His-Leu-reduced-Leu-Val-Tyr-OH], the IC50 was 17 µM.

Staying with this assay, now noted: Table I; human renin in human plasma; read-out: IC50, μM human.
In the case of `CC[C@H](C)[C@H](NC(=O)[C@@H](NC[C@H](CC(C)C)NC(=O)[C@H](Cc1c[nH]cn1)NC(=O)[C@H](Cc1ccccc1)NC(=O)[C@@H]1CCCN1C(=O)[C@@H](N)Cc1c[nH]cn1)C(C)C)C(=O)N[C@@H](Cc1c[nH]cn1)C(=O)N[C@@H](CCCCN)C(=O)O` [XXXI], the IC50 is 0.06 µM.

For the compound `CC[C@H](C)[C@H](NC(=O)[C@@H](NC[C@H](CC(C)C)NC(=O)[C@H](Cc1c[nH]cn1)NC(=O)[C@H](Cc1ccccc1)NC(=O)[C@@H]1CCCN1C(C)=O)C(C)C)C(=O)N[C@@H](Cc1c[nH]cn1)C(=O)N[C@H](CCCCN)C(=O)O` [XXXVII], the IC50 came to 0.6 µM.

For the compound `CC[C@H](C)[C@H](NC(=O)[C@@H](NC[C@H](CC(C)C)NC(=O)[C@H](Cc1c[nH]cn1)NC(=O)[C@H](Cc1ccccc1)NC(=O)[C@@H]1CCCN1C(=O)[C@H](Cc1c[nH]cn1)NC(=O)[C@@H]1CCCN1)C(C)C)C(=O)N[C@@H](Cc1c[nH]cn1)C(=O)N[C@@H](CCCCN)C(=O)O` [XIX], the IC50 turned out to be 0.008 µM.

For the compound `CC[C@H](C)[C@H](NC(=O)[C@@H](NC[C@H](CC(C)C)NC(=O)[C@H](Cc1c[nH]cn1)NC(=O)[C@H](Cc1ccccc1)NC(=O)[C@@H]1CCCN1C(=O)[C@H](Cc1c[nH]cn1)NC(=O)[C@H]1CCCN1)C(C)C)C(=O)N[C@@H](Cc1c[nH]cn1)C(=O)O` [XXIII] (H-[dP]HPFH-{Leuψ(CH2NH)ValIleHisOH}), the IC50 came out at 0.025 µM.

On to `CC[C@H](C)[C@H](NC(=O)[C@@H](NC[C@H](CC(C)C)NC(=O)[C@H](Cc1c[nH]cn1)NC(=O)[C@H](Cc1ccccc1)NC(=O)[C@H]1CCCN1C(=O)[C@@H](N)Cc1c[nH]cn1)C(C)C)C(=O)N[C@@H](Cc1c[nH]cn1)C(=O)O` [XXXII] (H-H[dP]FH-{Leuψ(CH2NH)ValIleHisOH}), for which the IC50 amounted to 5.5 µM.

For `CC[C@H](C)[C@H](NC(=O)[C@@H](NC[C@H](CC(C)C)NC(=O)[C@H](Cc1c[nH]cn1)NC(=O)[C@H](Cc1ccccc1)NC(=O)[C@@H]1CCCN1C(=O)[C@H](N)Cc1c[nH]cn1)C(C)C)C(=O)N[C@@H](Cc1c[nH]cn1)C(=O)N[C@H](CCCCN)C(=O)O` [XXXIX], the IC50 is 0.2 µM.

As for `CC[C@H](C)[C@H](NC(=O)[C@@H](NC[C@H](CC(C)C)NC(=O)[C@H](Cc1c[nH]cn1)NC(=O)[C@H](Cc1ccccc1)NC(=O)[C@@H]1CCCN1C(=O)[C@H](Cc1c[nH]cn1)NC(=O)[C@@H]1CCCN1)C(C)C)C(=O)N[C@@H](Cc1c[nH]cn1)C(=O)N[C@H](CCCCN)C(=O)O` [XXXVIII], the IC50 was found to be 0.1 µM.

For `CC[C@H](C)[C@H](NC(=O)[C@@H](NC[C@H](CC(C)C)NC(=O)[C@H](Cc1c[nH]cn1)NC(=O)[C@H](Cc1ccccc1)NC(=O)[C@@H]1CCCN1C(=O)[C@H](Cc1c[nH]cn1)NC(=O)[C@@H]1CCCN1)C(C)C)C(=O)N[C@@H](Cc1ccc(O)cc1)C(=O)NCCCCCN` [XX], the IC50 was found to be 3 µM.

For the compound `CC[C@H](C)[C@H](NC(=O)[C@@H](NC[C@H](CC(C)C)NC(=O)[C@H](Cc1c[nH]cn1)NC(=O)[C@H](Cc1ccccc1)NC(=O)[C@@H]1CCCN1C(=O)[C@H](Cc1c[nH]cn1)NC(=O)[C@@H]1CCCN1)C(C)C)C(=O)N[C@@H](Cc1ccc(O)cc1)C(=O)O` [XXX] (H-PHPFH-X3), the IC50 is 0.048 µM.

Consider `CC[C@H](C)[C@H](NC(=O)[C@@H](NC[C@H](CC(C)C)NC(=O)[C@H](Cc1c[nH]cn1)NC(=O)[C@H](Cc1ccccc1)NC(=O)[C@@H]1CCCN1C(=O)[C@H](Cc1c[nH]cn1)NC(=O)[C@@H]1CCCN1)C(C)C)C(=O)N[C@@H](Cc1c[nH]cn1)C(=O)O` [XXII] (H-PHPFH-{Leuψ(CH2NH)ValIleHisOH}), for which the IC50 came to 0.01 µM.

For the compound `CC[C@H](C)[C@H](NC(=O)[C@@H](NC[C@H](CC(C)C)NC(=O)[C@H](Cc1c[nH]cn1)NC(=O)[C@H](Cc1ccccc1)NC(=O)[C@@H]1CCCN1C(=O)[C@@H](N)CCCNC(=N)N)C(C)C)C(=O)N[C@@H](Cc1ccc(O)cc1)C(=O)O` [XXIV], the IC50 turned out to be 0.55 µM.

Source of the values: patent US4713445A, “Renin inhibitors and treatments using them” (priority 1983, dated 1987).
